Assay results taken from ChEMBL document CHEMBL3045122, “Synthesis, in vitro antimicrobial, antiproliferative, and QSAR studies of N-(substituted phenyl)-2/4-(1H-indol-3-ylazo)-benzamides” (Med Chem Res, 2013).

What was measured:
P388 = experiment: Cytotoxicity against Mus musculus (mouse) P388 cells assessed as growth inhibition after 72 hr by MTT assay; type: functional, cell-based
HCT-116 = experiment: Cytotoxicity against Homo sapiens (human) HCT116 cells assessed as growth inhibition after 72 hr by MTT assay; type: functional, cell-based
Aspergillus niger [1] = experiment: Ratio of MFC to MIC for Aspergillus niger; type: functional
MCF7 = experiment: Cytotoxicity against Homo sapiens (human) MCF7 cells assessed as growth inhibition after 72 hr by MTT assay; type: functional, cell-based
Candida albicans [2] = experiment: Ratio of MFC to MIC for Candida albicans; type: functional
Escherichia coli [3] = experiment: Ratio of MBC to MIC for Escherichia coli; type: functional
Bacillus subtilis [4] = experiment: Ratio of MBC to MIC for Bacillus subtilis; type: functional
Staphylococcus aureus [5] = experiment: Ratio of MBC to MIC for Staphylococcus aureus; type: functional
Aspergillus niger [6] = experiment: Fungicidal activity against Aspergillus niger; type: functional
Candida albicans [7] = experiment: Fungicidal activity against Candida albicans; type: functional
Escherichia coli [8] = experiment: Bactericidal activity against Escherichia coli; type: functional
Bacillus subtilis [9] = experiment: Bactericidal activity against Bacillus subtilis; type: functional
Staphylococcus aureus [10] = experiment: Bactericidal activity against Staphylococcus aureus; type: functional
Aspergillus niger [11] = experiment: Antifungal activity against Aspergillus niger assessed as growth inhibition after 7 days by tube dilution method; type: functional
Escherichia coli [12] = experiment: Antibacterial activity against Escherichia coli assessed as growth inhibition after 24 hr by tube dilution method; type: functional
Candida albicans [13] = experiment: Antifungal activity against Candida albicans assessed as growth inhibition after 48 hr by tube dilution method; type: functional
Bacillus subtilis [14] = experiment: Antibacterial activity against Bacillus subtilis assessed as growth inhibition after 24 hr by tube dilution method; type: functional
Staphylococcus aureus [15] = experiment: Antibacterial activity against Staphylococcus aureus assessed as growth inhibition after 24 hr by tube dilution method; type: functional

Row | SMILES | IC50 (P388) | IC50 (HCT-116) | Ratio (Aspergillus niger [1]) | IC50 (MCF7) | Ratio (Candida albicans [2]) | Ratio (Escherichia coli [3]) | Ratio (Bacillus subtilis [4]) | Ratio (Staphylococcus aureus [5]) | MFC (Aspergillus niger [6]) | MFC (Candida albicans [7]) | MBC (Escherichia coli [8]) | MBC (Bacillus subtilis [9]) | MBC (Staphylococcus aureus [10]) | -logMIC (Aspergillus niger [11]) | -logMIC (Escherichia coli [12]) | -logMIC (Candida albicans [13]) | -logMIC (Bacillus subtilis [14]) | -logMIC (Staphylococcus aureus [15])
1 | O=C(Nc1cccc([N+](=O)[O-])c1)c1ccc(/N=N\c2c[nH]c3ccccc23)cc1 | 0.0519 uM/ml | 0.0701 uM/ml | 3 | 0.0519 uM/ml | 3 | 3 | 3 | 3 | 0.03 uM/ml | 0.06 uM/ml | >0.13 uM/ml | >0.13 uM/ml | >0.13 uM/ml | 1.49 | 1.49 | 1.49 | 1.79 | 1.19
2 | Cc1ccc(C)c(NC(=O)c2ccc(/N=N\c3c[nH]c4ccccc34)cc2)c1 | Not Active | 0.5435 uM/ml | 3 | 0.0299 uM/ml | 3 | 3 | 3 | 3 | 0.03 uM/ml | 0.07 uM/ml | >0.14 uM/ml | >0.14 uM/ml | >0.14 uM/ml | 1.47 | 1.77 | 1.47 | 1.47 | 1.47
3 | Cc1ccc(NC(=O)c2ccc(/N=N\c3c[nH]c4ccccc34)cc2)c(C)c1 | 0.1902 uM/ml | 0.0761 uM/ml | 3 | 0.087 uM/ml | 3 | 3 | 3 | 3 | 0.03 uM/ml | 0.14 uM/ml | >0.14 uM/ml | >0.14 uM/ml | >0.14 uM/ml | 1.47 | 1.47 | 1.47 | 1.47 | 1.47
4 | O=C(Nc1cccc(Cl)c1)c1ccc(/N=N\c2c[nH]c3ccccc23)cc1 | 0.2667 uM/ml | 0.08 uM/ml | 3 | 0.0827 uM/ml | 3 | 3 | 3 | 3 | 0.03 uM/ml | >0.13 uM/ml | >0.13 uM/ml | >0.13 uM/ml | >0.13 uM/ml | 1.48 | 1.48 | 1.48 | 1.48 | 1.48
5 | COc1ccccc1NC(=O)c1ccc(/N=N\c2c[nH]c3ccccc23)cc1 | Not Active | 0.1216 uM/ml | 3 | 0.0865 uM/ml | 3 | 3 | 3 | 3 | 0.07 uM/ml | 0.03 uM/ml | >0.13 uM/ml | >0.13 uM/ml | >0.13 uM/ml | 1.47 | 1.47 | 1.47 | 1.47 | 1.47
6 | Cc1ccccc1NC(=O)c1ccc(/N=N\c2c[nH]c3ccccc23)cc1 | Not Active | 0.5085 uM/ml | 3 | 0.0734 uM/ml | 3 | 3 | 3 | 3 | 0.04 uM/ml | >0.14 uM/ml | >0.14 uM/ml | >0.14 uM/ml | >0.14 uM/ml | 1.45 | 1.45 | 1.45 | 1.45 | 1.15
7 | O=C(Nc1ccccc1F)c1ccc(/N=N\c2c[nH]c3ccccc23)cc1 | 0.1061 uM/ml | 0.5587 uM/ml | 3 | 0.0838 uM/ml | 3 | 3 | 3 | 3 | 0.03 uM/ml | 0.07 uM/ml | >0.14 uM/ml | >0.14 uM/ml | >0.14 uM/ml | 1.46 | 1.46 | 1.46 | 1.46 | 1.46
8 | O=C(Nc1ccc(Cl)cc1)c1ccc(/N=N\c2c[nH]c3ccccc23)cc1 | 0.08 uM/ml | 0.1867 uM/ml | 3 | 0.1067 uM/ml | 3 | 3 | 3 | 3 | 0.13 uM/ml | >0.13 uM/ml | >0.13 uM/ml | >0.13 uM/ml | >0.13 uM/ml | 1.48 | 1.48 | 1.48 | 1.48 | 1.48
9 | O=C(Nc1ccccc1)c1ccc(/N=N\c2c[nH]c3ccccc23)cc1 | Not Active | 0.1029 uM/ml | 3 | 0.1471 uM/ml | 3 | 3 | 3 | 3 | 0.07 uM/ml | >0.15 uM/ml | >0.15 uM/ml | >0.15 uM/ml | >0.15 uM/ml | 1.44 | 1.44 | 1.44 | 1.44 | 1.44
10 | O=C(Nc1ccccc1[N+](=O)[O-])c1ccc(/N=N\c2c[nH]c3ccccc23)cc1 | 0.0779 uM/ml | 0.2078 uM/ml | 3 | 0.1013 uM/ml | 3 | 3 | 3 | 3 | 0.03 uM/ml | >0.13 uM/ml | >0.13 uM/ml | >0.13 uM/ml | >0.13 uM/ml | 1.49 | 1.49 | 1.49 | 1.79 | 1.49
11 | O=C(Nc1ccccc1Cl)c1ccc(/N=N\c2c[nH]c3ccccc23)cc1 | Not Active | 0.12 uM/ml | 3 | 0.112 uM/ml | 3 | 3 | 3 | 3 | 0.03 uM/ml | >0.13 uM/ml | >0.13 uM/ml | >0.13 uM/ml | >0.13 uM/ml | 1.48 | 1.78 | 1.48 | 1.48 | 1.18
